Data published in ChEMBL document CHEMBL4609979, “Design of enkephalin modifications protected from brain extracellular peptidases providing long-term analgesia” (Bioorg Med Chem, 2020).
Calls of active or inactive are those of the source. No cut-off for these calls is given here. Where a SMILES comes first, the peptide text is derived from it. [ ]: non-standard residue; d: D form. βAla = NCCC(=O)O

What was measured:
[1] = Stability in bovine brain synaptosomes assessed as compound remaining at 0.35 mM incubated for 3 hrs by thin layer chromatography analysis; assay type: ADME, subcellular, Bos taurus; details: cattle; for remaining at 3 h, 350 µM: brain synaptosomes, read-out: Stability
Rattus norvegicus = experiment: Analgesic activity in Wistar rat assessed as increase in tail flick latency at 0.4 uM/kg administered intranasally and measured upto 120 mins by tail-flick test; assay type: functional, organism-based
[2] = Acute toxicity in Wistar rat assessed as animal death at 2 uM/kg administered intranasally and measured after 20 mins; details: in vivo, inhaled_or_intranasal
[3] = Acute toxicity in Wistar rat assessed as nausea at 2 uM/kg administered intranasally and measured after 20 mins; details: in vivo, inhaled_or_intranasal
[4] = Acute toxicity in Wistar rat assessed as animal activity at 2 uM/kg administered intranasally and measured after 20 mins; details: in vivo, inhaled_or_intranasal
[5] = Acute toxicity in Wistar rat assessed as sleep at 2 uM/kg administered intranasally and measured after 20 mins; details: in vivo, inhaled_or_intranasal
[6] = Acute toxicity in Wistar rat assessed as irritability at 2 uM/kg administered intranasally and measured after 20 mins; details: in vivo, inhaled_or_intranasal
[7] = Acute toxicity in Wistar rat assessed as appetite at 2 uM/kg administered intranasally and measured after 20 mins; details: in vivo, inhaled_or_intranasal
[8] = Acute toxicity in Wistar rat assessed as heart rate at 2 uM/kg administered intranasally and measured after 20 mins; details: in vivo, inhaled_or_intranasal
[9] = Acute toxicity in Wistar rat assessed as arterial pressure at 2 uM/kg administered intranasally and measured after 20 mins; details: in vivo, inhaled_or_intranasal
[10] = Acute toxicity in Wistar rat assessed as pathological abnormalities in tissues at 2 uM/kg administered intranasally and measured after 20 mins; details: in vivo, inhaled_or_intranasal
[11] = Toxicity in Wistar rat assessed as effect on memory by measuring average distance that has been travelled to previously placed platform at 0.4 uM/kg administered intranasally by Morris water maze test; details: in vivo, inhaled_or_intranasal
[12] = Acute toxicity in Wistar rat assessed as pathological abnormalities in organs at 2 uM/kg administered intranasally and measured after 20 mins; details: in vivo, inhaled_or_intranasal
[13] = Stability in bovine brain synaptosomes assessed as compound remaining at 0.35 mM incubated for 30 mins by thin layer chromatography analysis; assay type: ADME, subcellular, Bos taurus; details: cattle

## NCCC(=O)N[C@@H](Cc1ccc(O)cc1)C(=O)NCC(=O)NCC(=O)N[C@@H](Cc1ccccc1)C(N)=O (H-[βAla]YGGF-NH2)
[1]
  remaining at 3 h, 350 µM: 75%
Rattus norvegicus
  Activity: Active
[2]
  Activity: Non-Toxic
[3]
  Activity: Non-Toxic
[4]
  Activity: Non-Toxic
[5]
  Activity: Non-Toxic
[6]
  Activity: Non-Toxic
[7]
  Activity: Non-Toxic
[8]
  Activity: Non-Toxic
[9]
  Activity: Non-Toxic
[10]
  Activity: Non-Toxic
[11]
  Activity: Non-Toxic
[12]
  Activity: Non-Toxic

## CSCC[C@H](NC(=O)[C@H](Cc1ccccc1)NC(=O)CNC(=O)CNC(=O)[C@H](Cc1ccc(O)cc1)NC(=O)CCN)C(=O)NCCC(=O)O (H-[βAla]YGGFM[βAla]-OH)
[1]
  remaining at 3 h, 350 µM: 55%
Rattus norvegicus
  Activity: Active

## CSCC[C@H](NC(=O)[C@H](Cc1ccccc1)NC(=O)CNC(=O)CNC(=O)[C@@H](N)Cc1ccc(O)cc1)C(=O)O
[13]; 0.5 h, 350 µM
  Stability: Unstable
Rattus norvegicus
  Activity: Active

## NCCC(=O)N[C@@H](Cc1ccc(O)cc1)C(=O)NCC(=O)N[C@@H](Cc1ccccc1)C(N)=O (H-[βAla]YGF-NH2)
[1]
  remaining at 3 h, 350 µM: 75%
Rattus norvegicus
  Activity: inactive

## C[C@H](NC(=O)CCN)C(=O)N[C@@H](CCCCN)C(=O)N[C@@H](Cc1ccccc1)C(=O)NCCC(=O)O (H-[βAla]AKF[βAla]-OH)
[1]; 3 h, 350 µM
  Stability: Stable

## C[C@H](N)C(=O)N[C@@H](CCCCN)C(=O)N[C@@H](Cc1ccccc1)C(=O)O (H-Ala-Lys-Phe-OH)
[13]; brain synaptosomes, read-out: Stability
  remaining at 0.5 h, 350 µM: 0%
